Source: patent US11065211B2, “Isoxylitones mediated neurogenesis” (priority 2018, dated 2021)

Legend:
Type in all cases: cell-based, rat
[1] = test system: cortical cells and hippocampal cells; assay: MTT assay, in vitro screening of compounds for cell proliferation activity; details: 24 hrs treatment
Description: The Tetrazolium MTT [3-(4, 5-dimethyl thiazol-2-yl)-2,5-diphenyl tetrazolium bromide] Assay: MTT assay was used to screen various compounds for their proliferating effect on cortical cells and hippocampal cells. The principle of MTT test is based on the ability of live cells to form insoluble purple formazan product from the breakdown of the water soluble yellow tetrazolium salt by mitochondrial enzyme succinate dehydrogenase (Mosmann, 1983). The resulting intracellular purple formazan can quantify by spectrophotometric means. The MTT Cell Proliferation Assay measures the cell proliferation rate and conversely, when metabolic events lead to apoptosis or necrosis, the reduction in cell viability.
The density of the cortical and hippocampal cells was adjusted at the density 2×10^5 cells/mL in complete DMEM medium (5% FBS). The cells (5000/well) were then plated in 96-wells plate and incubated for 24 hrs at 37° C. with 5% CO2. Following 24 hrs incubation, media was removed and 100 μL of each test compounds in DMEM media (5% FBS) were added. […] The culture plates were re-incubated for 24 hrs at 37° C. in 5% CO2. Cells treated with 0.1% DMSO in complete media (5% FBS) were used as vehicle controls. […] The absorbance was read at 495 nm on spectrophotometer. […] The percent rate of proliferation was calculated using the following formula, % rate of proliferation={(At−Ab)/(Ac−Ab)}×100

hippocampal cells = assay: BrdU proliferation ELISA assay; details: 24 h, FIG. 5
Experimental: (§1) BrdU-Incorporation Assay: For measuring the newly synthesized cells during proliferation of treated and un-treated cultured hippocampal, cortical and co-cultured cells, the BrdU (Calbiochem®, CA, USA) cell proliferation ELISA kit was used. This immunoassay is based on the measurement of BrdU (5-bromo-2′-deoxiurydine) incorporation into DNA during division phase of the proliferating cells. For BrdU proliferation assay, primary cultured cells were grown in 75 cm flasks and when cells were confluent they were trypsinized and re-plated with a cell density of 1×10^5 cells/mL in 96-well tissue culture grade flat bottom ELISA plates, i.e., (10,000 cells/well) in DMEM medium (high glucose). The plates were incubated overnight at 37° C. in 5% CO2. Next day, media was changed and adherent cells were treated with different doses of isoxylitones, i.e., 25, 50, 75, 100, and 150 μg/mL and incubated for 24 hrs in a humidified chamber at 37° C. and 5% CO2.
(§2) The following day, the cells were first labeled by the 20 μL of BrdU (1:2000) in fresh medium and kept in a humidified atmosphere at 37° C. for 24 hrs. During 20-24 hrs of labeling period, BrdU is incorporated in place of thymidine into the DNA of the proliferating cells. After removing the labeling medium by tapping off the plate, cells were fixed, and DNA denatured in one step by adding 200 μL of fixative or Denat solution (provided in the kit) in each well following incubation for 30 minutes at room temperature.
(§3) The fixation and denaturation of DNA is required to expose the incorporated BrdU for detection by the antibody. The fixative or Denat solution was removed by flicking off and tapping on paper towel. […] The immune complexes were detected by the subsequent substrate reaction and the absorbance was measured on spectrophotometer plate reader at dual wave lengths of 450-595 nm within 30 minutes of adding the stop solution. The data was analyzed using SPSS and graphs were made on Excel.

cortical cells = assay: BrdU proliferation ELISA assay; details: 150 μg/ml, 24 h, FIG. 5
Experimental: as §1, §2, §3

Q: Which results are given for `CC(=O)C=C1C=C(C)CC(C)(C)C1` (mixture of isomers) [isoxylitones]?
A: activity on the cell proliferation (MTT screening) [1]: significant potent activity; BrdU positive cells (hippocampal cells; 100 μg/ml): significantly increased BrdU positive cells; BrdU positive cells (hippocampal cells; 150 μg/ml): significantly increased BrdU positive cells; BrdU positive cells (cortical cells): slightly increased BrdU positive cells
